The term viscosity denotes the internal friction of a fluid under shear. What is called mass density is the mass of a sample divided by its volume. As usually defined, the refractive index is the speed of light in vacuum divided by its phase velocity in the sample.

Among the data in the NIST ThermoML archive (doi:10.1016/j.jct.2018.12.022) are viscosity, mass density and refractive index values, retold here.

± gives the expanded uncertainty stated by the source.

For series [1] the following is noted: 298.15 K, 101.33 kPa, Liquid.
Series [2] is described as follows: refractive index (Na D-line) (dimensionless). To be noted: 298.15 K; 101.33 kPa; Liquid; Standard Abbe refractometry.

Turning to `C[C@H](N)C(=O)[O-].C[N+](C)(C)CCO` [2-hydroxy-N,N,N-trimethylethanaminium L-alaninate], the viscosity in series [1] (Falling or rolling sphere viscometry) worked out at 715 ± 70 mPa·s. Moreover, the mass density in series [1] (Vibrating tube method) is 1122.56 ± 1.1 kg/m3. The refractive index in series [2] is 1.4868 ± 0.0006.
